# Where two headings read alike, the source gives them in different places.
# Key:
# Test in all cases: NCI 60 cell panel growth inhibition
# Assay type in all cases: cell-based, human
# MOLT-4 = conditions: Leukemia, read-out: anti-tumour activity GI50
# Excerpt: (§1) Examples 6 and 7 make use of the NCl 60 cell panel. This is an in vitro cell line screening project providing direct support to the National Cancer Institute's USA Developmental Therapeutic Programme for anti cancer discovery. The methodolgy for the cell line's operation is described by Boyd et al in Drug Development Research 1995, 34, 91-109.
# UCC-62 = conditions: MELAN, read-out: anti-tumour activity GI50
# Excerpt: as §1
# SF-268 = conditions: CNS, read-out: anti-tumour activity GI50
# Excerpt: as §1
# U251 = conditions: read-out: anti-tumour activity GI50
# Excerpt: as §1
# HL-60(TB) = conditions: Leukemia, read-out: anti-tumour activity GI50
# Excerpt: as §1
# RPMI-8226 = conditions: Leukemia, read-out: anti-tumour activity GI50
# Excerpt: as §1
# MDA-MB-231/ATCC = conditions: BREAST, read-out: anti-tumour activity GI50
# Excerpt: as §1
# MALME-3M = conditions: MELAN, read-out: anti-tumour activity GI50
# Excerpt: as §1
# K562 = conditions: Leukemia, read-out: anti-tumour activity GI50
# Excerpt: as §1
# MCF7 = conditions: BREAST, read-out: anti-tumour activity GI50
# Excerpt: as §1
# SW-620 = conditions: COLON, read-out: anti-tumour activity GI50
# Excerpt: as §1
# CCRF-CEM = conditions: Leukemia, read-out: anti-tumour activity GI50
# Excerpt: as §1
# SK-MEL-5 = conditions: MELAN, read-out: anti-tumour activity GI50
# Excerpt: as §1
# OVCAR-3 = conditions: OVAR, read-out: anti-tumour activity GI50
# Excerpt: as §1
# HCC2998 = conditions: read-out: anti-tumour activity GI50
# Excerpt: as §1
# LOX IMVI = conditions: MELAN, read-out: anti-tumour activity GI50
# Excerpt: as §1
# SK-MEL-28 = conditions: MELAN, read-out: anti-tumour activity GI50
# Excerpt: as §1
# SF-539 = conditions: CNS, read-out: anti-tumour activity GI50
# Excerpt: as §1
# BT-549 = conditions: BREAST, read-out: anti-tumour activity GI50
# Excerpt: as §1
# SK-MEL-2 = conditions: MELAN, read-out: anti-tumour activity GI50
# Excerpt: as §1
# ACHN = conditions: RENAL, read-out: anti-tumour activity GI50
# Excerpt: as §1
# HT29 = conditions: read-out: anti-tumour activity GI50
# Excerpt: as §1
# HOP-62 = conditions: NSCLC, read-out: anti-tumour activity GI50
# Excerpt: as §1
# SF-295 = conditions: CNS, read-out: anti-tumour activity GI50
# Excerpt: as §1
# RXF 393 = conditions: RENAL, read-out: anti-tumour activity GI50
# Excerpt: as §1
# A549/ATCC = conditions: NSCLC, read-out: anti-tumour activity GI50
# Excerpt: as §1
# CAKI-1 = conditions: RENAL, read-out: anti-tumour activity GI50
# Excerpt: as §1
# HCT-116 = conditions: COLON, read-out: anti-tumour activity GI50
# Excerpt: as §1
# PC-3 = conditions: PROST, read-out: anti-tumour activity GI50
# Excerpt: as §1
# M14 = conditions: MELAN, read-out: anti-tumour activity GI50
# Excerpt: as §1
# KM12 = conditions: COLON, read-out: anti-tumour activity GI50
# Excerpt: as §1
# OVCAR-4 = conditions: OVAR, read-out: anti-tumour activity GI50
# Excerpt: as §1
# IGROV1 = conditions: read-out: anti-tumour activity GI50
# Excerpt: as §1
# 786-0 = conditions: RENAL, read-out: anti-tumour activity GI50
# Excerpt: as §1
# OVCAR-5 = conditions: OVAR, read-out: anti-tumour activity GI50
# Excerpt: as §1
# NCI-H322M = conditions: NSCLC, read-out: anti-tumour activity GI50
# Excerpt: as §1
# EKVX = conditions: NSCLC, read-out: anti-tumour activity GI50
# Excerpt: as §1
# HOP-92 = conditions: NSCLC, read-out: anti-tumour activity GI50
# Excerpt: as §1
# NCI-H460 = conditions: NSCLC, read-out: anti-tumour activity GI50
# Excerpt: as §1
# 435 = conditions: BREAST, read-out: anti-tumour activity GI50
# Excerpt: as §1
# NCI-H522 = conditions: NSCLC, read-out: anti-tumour activity GI50
# Excerpt: as §1
# SKOV-3 = conditions: read-out: anti-tumour activity GI50
# Excerpt: as §1
# TK10 = conditions: read-out: anti-tumour activity GI50
# Excerpt: as §1
# SN12C = conditions: RENAL, read-out: anti-tumour activity GI50
# Excerpt: as §1
# OVCAR-8 = conditions: OVAR, read-out: anti-tumour activity GI50
# Excerpt: as §1
# T-47D = conditions: BREAST, read-out: anti-tumour activity GI50
# Excerpt: as §1
compound,measurement,setting,value
C=C(C)[C@H](OC(=O)c1cc(OC)cc2c(C)cccc12)C(=O)NCCN1CCCC(Cl)C1 (some centres unmarked) [Compound 21],GI50,MOLT-4; Homo sapiens,3.3 µM
same,GI50,"UCC-62; Homo sapiens, 60 cell",4.41 µM
same,GI50,SF-268; Homo sapiens,11.9 µM
same,GI50,"U251; Homo sapiens, U-251, CNS",2.63 µM
same,GI50,HL-60(TB); Homo sapiens,12.1 µM
same,GI50,RPMI-8226; Homo sapiens,3.43 µM
same,GI50,MDA-MB-231/ATCC; Homo sapiens,11 µM
same,GI50,MALME-3M; Homo sapiens,7.51 µM
same,GI50,K562; Homo sapiens,5.16 µM
same,GI50,MCF7; Homo sapiens,4.62 µM
same,GI50,SW-620; Homo sapiens,2.76 µM
same,GI50,CCRF-CEM; Homo sapiens,3.24 µM
same,GI50,SK-MEL-5; Homo sapiens,1.99 µM
same,GI50,OVCAR-3; Homo sapiens,10.2 µM
same,GI50,"HCC2998; Homo sapiens, HCC 2998, COLON",4.27 µM
same,GI50,LOX IMVI; Homo sapiens,2.84 µM
same,GI50,SK-MEL-28; Homo sapiens,8.48 µM
same,GI50,SF-539; Homo sapiens,0.45 µM
same,GI50,BT-549; Homo sapiens,4.55 µM
same,GI50,SK-MEL-2; Homo sapiens,7.81 µM
same,GI50,ACHN; Homo sapiens,1.78 µM
same,GI50,"HT29; Homo sapiens, HT-29, COLON",7.26 µM
same,GI50,HOP-62; Homo sapiens,3.45 µM
same,GI50,SF-295; Homo sapiens,4.35 µM
same,GI50,RXF 393; Homo sapiens,19.1 µM
same,GI50,A549/ATCC; Homo sapiens,8.26 µM
same,GI50,CAKI-1; Homo sapiens,5.66 µM
same,GI50,HCT-116; Homo sapiens,12.8 µM
same,GI50,PC-3; Homo sapiens,7.96 µM
same,GI50,M14; Homo sapiens,1.75 µM
same,GI50,KM12; Homo sapiens,9.3 µM
same,GI50,OVCAR-4; Homo sapiens,20.9 µM
same,GI50,"IGROV1; Homo sapiens, IGROV-1, OVAR",4.21 µM
same,GI50,786-0; Homo sapiens,4.48 µM
same,GI50,OVCAR-5; Homo sapiens,11.1 µM
same,GI50,NCI-H322M; Homo sapiens,8.07 µM
same,GI50,EKVX; Homo sapiens,11.4 µM
same,GI50,HOP-92; Homo sapiens,4.12 µM
same,GI50,NCI-H460; Homo sapiens,6.26 µM
same,GI50,"435; Homo sapiens, 60 cell",7.62 µM
same,GI50,NCI-H522; Homo sapiens,5.1 µM
same,GI50,"SKOV-3; Homo sapiens, SK-OV-3, OVAR",17.2 µM
same,GI50,"TK10; Homo sapiens, TK-10, RENAL",12.1 µM
same,GI50,SN12C; Homo sapiens,3.76 µM
same,GI50,OVCAR-8; Homo sapiens,32.9 µM
same,GI50,"T-47D; Homo sapiens, T47D",10.8 µM
COc1cc(C(=O)OC(C(=O)NCCN2CCCC(Cl)C2)C2(C)CO2)c2cccc(C)c2c1 (centres unmarked) [Compound 20],GI50,MOLT-4,3 µM
same,GI50,UCC-62,14.7 µM
same,GI50,SF-268,16.6 µM
same,GI50,U251; CNS,7.82 µM
same,GI50,HL-60(TB),6.98 µM
same,GI50,RPMI-8226,4.18 µM
same,GI50,MDA-MB-231/ATCC,14 µM
same,GI50,MALME-3M,14.8 µM
same,GI50,K562,8.33 µM
same,GI50,MCF7,14.7 µM
same,GI50,SW-620,5.26 µM
same,GI50,CCRF-CEM,3.26 µM
same,GI50,SK-MEL-5,1.56 µM
same,GI50,OVCAR-3,18.6 µM
same,GI50,HCC2998; COLON,8.25 µM
same,GI50,LOX IMVI,3.62 µM
same,GI50,SK-MEL-28,11.6 µM
same,GI50,SF-539,6.27 µM
same,GI50,BT-549,12.5 µM
same,GI50,SK-MEL-2,18.6 µM
same,GI50,ACHN,1.17 µM
same,GI50,HT29; COLON,11 µM
same,GI50,HOP-62,100 µM
same,GI50,SF-295,13.1 µM
same,GI50,RXF 393,17.5 µM
same,GI50,A549/ATCC,31.1 µM
same,GI50,CAKI-1,10.3 µM
same,GI50,HCT-116,100 µM
same,GI50,PC-3,11.2 µM
same,GI50,M14,100 µM
same,GI50,KM12,14.5 µM
same,GI50,OVCAR-4,21.5 µM
same,GI50,IGROV1; OVAR,12.1 µM
same,GI50,786-0,100 µM
same,GI50,OVCAR-5,16.1 µM
same,GI50,NCI-H322M,17.9 µM
same,GI50,EKVX,17.5 µM
same,GI50,HOP-92,13.8 µM
same,GI50,NCI-H460,13 µM
same,GI50,435,14.3 µM
same,GI50,NCI-H522,7.77 µM
same,GI50,SKOV-3; OVAR,19.7 µM
same,GI50,TK10; RENAL,23.4 µM
same,GI50,SN12C,6.76 µM
same,GI50,OVCAR-8,44.5 µM
same,GI50,T-47D,23 µM
